# Measurements taken from US20100227841A1, “Patient populations and treatment methods” (Harbor BioSciencs, Inc., priority 2008, published 2010).
# Key:
# CCR2 / MCP1 = experiment: Effects of treatment on CCR2 expression and circulating MCP1; assay type: in vivo
# From the text: The treatment methods described herein may involve treating patient subsets having elevated MCP1 (monocyte chemoattractant protein 1, or sometimes referred to as CCL2, which is CC chemokine receptor 2 ligand). CC chemokine receptor 2 (CCR2) is the receptor for MCP1. […] These effects are consistent with biological responses that correspond to reduced progression and/or at least partial reversal of cardiovascular plaque accumulation. That provides a basis for treating, e.g., slowing the progression, of arteriosclerosis and atherosclerosis. Such treatments would be effective in patients having a dyslipidemia such as hypercholesterolemia and/or hypertriglyceridemia with or without also having an arteriosclerosis condition such as atherosclerosis. Such patients will preferably have BMI and fasting plasma insulin levels as described in the embodiments described below (e.g., in embodiment 1, 9, 10, 17 or 19), examples or original claims, e.g., a BMI of ≧28 and insulin of ≧4 μU/mL. Any of these patients may also have hyperglycemia or overt diabetes. Patients with elevated MCP1 are also treatable for preventing or reducing the severity of cardiovascular disease, including myocardial infarction.
# [1] = test system: RAW264.7 macrophage cells; experiment: Macrophage chemotaxis assay with 3T3-L1 adipocyte conditioned medium; assay type: cell-based; conditions: p<0.05
# Experimental: The macrophage chemotaxis assay was conducted with differentiated 3T3-L1 adipocytes (day +11 post differentiation) incubated for 24 hours with compounds (10 ng/mL TNFα with or without 100 nM 17α-ethynylandrost-5-ene-3β,7β,17β-triol) or vehicle in DMEM with 0.2% FFA- and endotoxin-free BSA. Conditioned medium (CM) was collected and kept frozen in single-use aliquots. For the chemotaxis assay, 600 μl/well of adipocyte CM was aliquoted into 24-well tissue culture plates. 2×10^5 RAW264.7 macrophage cells resuspended in DMEM containing 0.2% BSA were plated in the upper transwell chamber ([…], 24-transwell format; Corning, Lowell, Mass.). After 3 hours of migration, the RAW264.7 cells were fixed in formalin and stained with DAPI. Cells in the upper chamber that had not migrated were removed. Cells found on the filter facing the lower chamber were counted as cells having performed chemotaxis and quantified with the Simple PCI imaging software (Compix Inc., Cranberry Township, Pa.).
# [2] = test system: pre-diabetic hyperglycemic patients and patients having type 2 diabetes; experiment: Biomarkers in 28-day clinical trial (serum CRP, adipokines; cytokines from LPS stimulated PBMC by ELISA); assay type: in vivo, human
# Experimental: Groups of pre-diabetic hyperglycemic patients and patients having type 2 diabetes were treated for 28 days with the experimental drug 17α-ethynylandrost-5-ene-3β,7β,17β-triol (oral capsules) or with placebo. Dosages for the pre diabetic patients were 0 mg per day (placebo control; n=10), 5 mg once per day (n=9; cohort 1), 5 mg twice per day (n=8; cohort 2) or 10 mg twice per day (n=7; cohort 3). Placebos were obtained with each treatment cohort based on protocol randomization of 2 treated:1 placebo. The pre-diabetic patients were obese (body mass index ≧29 kg/m^2) and glucose intolerant (fasting plasma glucose <126 mg/dL; 2-hr post prandial glucose 140-200 mg/dL after 75 g oral glucose). The diabetic patients were dosed with 10 mg/day for 28 days (n=6; cohort 6). The glucose clamp protocol was performed on groups of patients dosed with 10 mg/day or 20 mg/day of drug at baseline, one day before drug treatment started (day −1), and one day after the last day of dosing with the drug (day 29). Patients with an M value of <5 mg glucose/kg/min (M<5) were considered insulin resistant and patients with an M value of >5 mg glucose/kg/min (M>5) were considered insulin sensitive or essentially normal for whole body glucose metabolism.
# Levels of cytokine biomarkers from patients with M values measured by glucose clamp such as MCP1, TNFα, IL-6 and IL-1β were measured by ELISA as the amount of cytokine secreted from LPS stimulated peripheral blood mononuclear cells from the patients at baseline (day −1) and at 1 day after the last day of drug dosing (day 29). Levels of RBP4 and CRP protein were measured from patient serum.
# The analysis of responders used standard analysis. Due to the cohort sizes and the ongoing basis of this clinical protocol, data for surrogates that corresponded to significance at p≦0.10 (trend) were considered positive evidence of surrogacy of the biomarker for the M<5 insulin resistant condition.
# [3] = TNFα-treated adipocyte CM, adipocytes pretreated
# [4] = cohort 2, 3 and 6 M<5 patients vs M>5 patients, p<0.03
smiles,measurement,setting,value
"C#C[C@]1(O)CC[C@H]2[C@@H]3[C@@H](O)C=C4C[C@@H](O)CC[C@]4(C)[C@H]3CC[C@@]21C [17α-ethynylandrost-5-ene-3β,7β,17β-triol]",expression levels of CCR2,CCR2 / MCP1; in vivo,decrease
same,MCP1 in circulation,"CCR2 / MCP1; typically protein levels in serum, e.g. ELISA",trend to decrease
same,macrophage secretion of CCL5/RANTES,[1]; [3],significantly decreased
same,macrophage secretion of MCP-1/CCL2,[1]; [3],significantly decreased
same,reduction of macrophage migration stimulated by CM from TNFα-treated adipocytes,[1]; adipocytes pretreated with 100 nM,~30%
same,adiponectin,[2]; M<5 drug treated patients,not affected
same,Resistin,[2]; M<5 drug treated subjects,increased much less
same,decrease in CRP,"[2]; M<5 patients compared to M>5 patients, p=0.094 exact Mann-Whitney",significant
same,Leptin,[2]; all drug treated cohorts (decreased in placebo patients),increased
same,IL-1β (LPS stimulated PBMC),[2]; [4],highly significant decrease
same,IL-6 (LPS stimulated PBMC),[2]; [4],highly significant decrease
same,MCP1 (LPS stimulated PBMC),[2]; [4],highly significant decrease
same,TNFα (LPS stimulated PBMC),[2]; [4],highly significant decrease
same,Leptin,"[2]; cohort 6 (diabetic patients, 10 mg/day), p=0.002",significantly increased
same,TNFα (LPS stimulated PBMC),"[2]; day 29, drug treated M<5 vs drug treated M>5 patients, p=0.075",greater decrease
same,MCP1 (LPS stimulated PBMC),"[2]; day 29, drug treated M<5 vs drug treated M>5 patients, p=0.093",greater decrease
same,Resistin,[2]; drug treated subjects vs placebo control patients,increased less
same,CRP,"[2]; insulin resistant subjects (M<5) compared to placebo-treated subjects, p=0.018 exact Mann-Whitney",significantly decreased
